In PMC12022903, “Evaluation of drug-drug interaction between Suraxavir Marboxil (GP681) and itraconazole, and assessment of the impact of gene polymorphism” (Frontiers in Pharmacology, 2025):
Several values for one entry are separate records, joined by “and”; a condition that tells them apart may be missing. Equal entries are not always repeated.

Assay: Pharmacokinetic parameters of GP1707D07 (HPLC-MS/MS, non-compartmental) in the GP681-itraconazole drug-drug interaction study
Assay type: in vivo, healthy Chinese subjects
Method: This single-center, open-label, self-controlled, fixed-sequence study, sponsored by Qingfeng Pharmaceutical Group Co., Ltd., was conducted at a single clinical research site in the China–Japan Friendship Hospital (Beijing, China). Each subject received the following treatment: Suraxavir Marboxil (GP681) 20 mg in the fasted state on day 1 and day 26. Itraconazole capsules (Sporanox®: Xi’an Yangsen Pharmaceutical Co., Ltd., China) 0.2 g twice daily (BID, bis in die) on day 22. Itraconazole 0.2 g daily from day 23 to day 36 [including day 26, when itraconazole was co-administrated with Suraxavir Marboxil (GP681)]. The washout period is 21 days (Figure 2). It should be noted that in the following sections, when discussing the PK profile, this study was divided into Period 1 (Suraxavir Marboxil (GP681) monotherapy, from day −1 to day 12), and Period 2 (Suraxavir Marboxil (GP681)-itraconazole co-administration, from day 21 to day 36). When discussion the safety profile, this study was divided into Stage 1 (Suraxavir Marboxil (GP681) monotherapy stage, from day 1 to day 21), Stage 2 (itraconazole monotherapy stage, from day 22 to day 25), and Stage 3 (Suraxavir Marboxil (GP681)-itraconazole co-administration stage, from d 26 to d 36).
Blood samples were collected at the following time points: pre–dose, 0.5, 1, 2, 3, 4, 5, 6, 8, 12, 24, 36, 48, 72, 120, 168, and 264 h post-dose on day 1 and day 26. In addition, a blood sample were collected before dosing on day 1 for genetic polymorphism assessment.
A validated high-performance liquid chromatography-tandem mass spectrometry (HPLC-MS/MS) method was used to determine plasma concentrations of Suraxavir Marboxil (GP681) and its active metabolite GP1707D07 at different times, with the quantification range of 0.3/0.3–300/300 ng/mL for Suraxavir Marboxil (GP681) and GP1707D07. The lower limit of quantification (LLOQ) for both compounds was 0.300 ng/mL. Phoenix® WinNonlin® 8.3 was used to estimate and analyze the pharmacokinetic parameters of non-compartmental model from plasma concentration data. Pharmacokinetic parameters included: maximum plasma concentration (Cmax), area under the plasma concentration-time curve extrapolated from time zero to infinity (AUC0- ∞ ), time to Cmax (Tmax), half-life (t1/2), λz, AUC_%Extrap, Vz/F, CL/F, and mean residence time (MRT).
Statistical analysis was performed using SAS (version 9.4 or above) software programming. Pharmacokinetic concentration analysis was based on Pharmacokinetic Analysis Concentration Set (PKCS). Individual and mean concentrations (mean ± SD) were plotted against planned blood sampling time points for the analyte on linear and semi-log scales. Pharmacokinetic parameter analysis was based on Pharmacokinetic Analysis Parameter Set (PKPS). Drug interaction analysis was based on Drug Interaction Set (DIS). The geometric mean ratios and their 90% confidence intervals of pharmacokinetic parameters Cmax, AUC0-t, and AUC0- ∞ under Suraxavir Marboxil (GP681) single dose and Suraxavir Marboxil (GP681)-itraconazole co-administration conditions were calculated after natural logarithm transformation, using a linear mixed effects model with subjects as random effects and treatment (combined/single) as fixed effects.
1.3 Pharmacokinetic Sample Collection and Processing: Pharmacokinetic Analysis: Approximately 4 mL of blood is collected each time into a tube containing sodium fluoride/potassium oxalate as an anticoagulant. The tube is then placed upright in an ice-water bath. The plasma samples are separated by centrifugation for the detection of GP681/GP1707D07 blood drug concentrations. Both sample collection and processing are conducted under white light conditions. […]

[1] = GP681 + itraconazole vs GP681 alone, N=12
[2] = Period 1, GP681 20 mg monotherapy, geometric mean, N=12
[3] = Period 1, GP681 20 mg monotherapy, individual subjects
[4] = Period 1, GP681 20 mg monotherapy, mean, N=12
[5] = Period 1, GP681 20 mg monotherapy, median, N=12
[6] = Period 2, GP681 20 mg + itraconazole, geometric mean, N=12

## O=C1c2c(O)c(=O)ccn2N([C@@H]2c3ccccc3SCc3c2ccc(F)c3F)[C@@H]2COC3(CC3)CN12 [GP1707D07]
[1]
  AUC0-t: point estimate of geometric mean ratio (90% CI) Period 2/Period 1: 215.2% and 215.2 (170.7, 271.3) %
  AUC0-∞: point estimate of geometric mean ratio (90% CI) Period 2/Period 1: 255.4% and 255.4 (204.5, 319.0) %
  Cmax: point estimate of geometric mean ratio (90% CI) Period 2/Period 1: 137.7% and 137.7 (98.5, 192.3) %
[2]
  AUC0-t: 955.800 ng·h/mL
  AUC_%Extrap: 7.117%
  CL/F: 19.255 L/h
  Cmax: 16.0 ng/mL and 16.0070 ng/mL
  MRT0-t: 66.790 h
  MRT0-∞: 87.2 h and 87.218 h
  Tmax: 3.7 h
  Vz/F: 1799.125 L
  t1/2: 64.8 h and 64.764 h
  λz: 0.0107 h⁻¹
[3]
  AUC0-t: 1770.18 ng·h/mL and 1069.77 ng·h/mL and 1199.27 ng·h/mL and 602.25 ng·h/mL and 1158.79 ng·h/mL and 728.18 ng·h/mL and 1487.97 ng·h/mL and 759.35 ng·h/mL and 1247.30 ng·h/mL and 1364.54 ng·h/mL and 354.04 ng·h/mL and 739.81 ng·h/mL and 1069.8 ng·h/mL and 1199.3 ng·h/mL and 602.3 ng·h/mL and 1158.8 ng·h/mL and 728.2 ng·h/mL and 1488.0 ng·h/mL and 759.4 ng·h/mL and 1364.5 ng·h/mL and 354.0 ng·h/mL and 739.8 ng·h/mL and 1770.2 ng·h/mL
  AUC0-∞: 1874.52 ng·h/mL and 1171.14 ng·h/mL and 1273.75 ng·h/mL and 689.41 ng·h/mL and 1290.37 ng·h/mL and 801.51 ng·h/mL and 1650.91 ng·h/mL and 781.02 ng·h/mL and 1310.49 ng·h/mL and 1409.63 ng·h/mL and 407.77 ng·h/mL and 814.16 ng·h/mL
  AUC_%Extrap: 5.57% and 8.66% and 5.85% and 12.64% and 10.20% and 9.15% and 9.87% and 2.78% and 4.82% and 3.20% and 13.18% and 9.13%
  CL/F: 10.67 L/h and 17.08 L/h and 15.70 L/h and 29.01 L/h and 15.50 L/h and 24.95 L/h and 12.11 L/h and 25.61 L/h and 15.26 L/h and 14.19 L/h and 49.05 L/h and 24.57 L/h
  Cmax: 44.439 ng/mL and 17.988 ng/mL and 26.933 ng/mL and 7.24 ng/mL and 15.539 ng/mL and 12.018 ng/mL and 25.999 ng/mL and 16.03 ng/mL and 20.468 ng/mL and 30.14 ng/mL and 3.382 ng/mL and 11.179 ng/mL and 18.0 ng/mL and 26.9 ng/mL and 7.2 ng/mL and 15.5 ng/mL and 12.0 ng/mL and 26.0 ng/mL and 16.0 ng/mL and 20.5 ng/mL and 30.1 ng/mL and 3.4 ng/mL and 11.2 ng/mL and 44.4 ng/mL
  MRT0-t: 61.44 h and 71.79 h and 62.61 h and 74.73 h and 74.78 h and 69.62 h and 63.68 h and 57.28 h and 63.69 h and 56.39 h and 80.89 h and 69.22 h
  MRT0-∞: 75.90 h and 95.15 h and 78.26 h and 108.96 h and 102.37 h and 94.31 h and 93.23 h and 64.34 h and 75.97 h and 64.54 h and 117.49 h and 94.32 h
  Tmax: 3 h and 6 h and 2 h and 5 h and 4 h
  Vz/F: 857.04 L and 1725.92 L and 1402.22 L and 3031.63 L and 1619.87 L and 2462.69 L and 1483.10 L and 1801.98 L and 1183.17 L and 996.59 L and 5767.31 L and 2522.77 L
  t1/2: 55.68 h and 70.05 h and 61.90 h and 72.43 h and 72.44 h and 68.41 h and 84.86 h and 48.78 h and 53.74 h and 48.69 h and 81.51 h and 71.18 h
  λz: 0.012 h⁻¹ and 0.010 h⁻¹ and 0.011 h⁻¹ and 0.008 h⁻¹ and 0.014 h⁻¹ and 0.013 h⁻¹ and 0.009 h⁻¹
[4]
  AUC_%Extrap: 7.9 (3.4) % and 7.919%
  CL/F: 21.1 (10.6) L/h and 21.141 L/h
  Cmax: 19.3 (11.2) ng/mL and 19.2796 ng/mL
  MRT0-t: 67.2 (7.5) h and 67.176 h
  MRT0-∞: 88.7 (17.0) h and 88.737 h
  Tmax: 4.0 h
  Vz/F: 2071.2 (1,333.0) L and 2071.190 L
  t1/2: 65.8 (12.1) h and 65.805 h
  λz: 0.011 (0.0021) h-1 and 0.0109 h-1
Period 1, GP681 20 mg monotherapy, median (range), N=12
  Tmax: 4.0 (2.0–6.0) h
[5]
  AUC0-t: 1114.281 ng·h/mL
  AUC0-∞: 1222.445 ng·h/mL
  AUC_%Extrap: 8.894%
  CL/F: 16.390 L/h
  Cmax: 17.0090 ng/mL
  MRT0-t: 66.454 h
  MRT0-∞: 93.771 h
  Vz/F: 1672.897 L
  t1/2: 69.231 h
  λz: 0.0100 h⁻¹
[6]
  AUC0-t: 2057.0 ng·h/mL and 2057.031 ng·h/mL
  AUC_%Extrap: 21.847%
  CL/F: 7.539 L/h
